Measurements: patent US20210267203A1, “PESTICIDALLY ACTIVE AZOLE-AMIDE COMPOUNDS” (SYNGENTA PARTICIPATIONS AG, priority 2018, published 2021)

Experiments:
Format in all cases: in vivo
[1] = tested on: Myzus persicae (Green Peach Aphid); experiment: Example B13: activity against Myzus persicae (green peach aphid), 96-well sucrose solution; conditions: 120 h, application rate 50 ppm, 5 days after infestation
From the text: Example B13: Activity Against Myzus persicae (Green Peach Aphid)
Test compounds prepared from 10,000 ppm DMSO stock solutions were applied by a liquid handling robot into 96-well microtiter plates and mixed with a sucrose solution. Parafilm was stretched over the 96-well microtiter plate and a plastic stencil with 96 holes was placed onto the plate. Aphids were sieved into the wells directly onto the Parafilm. The infested plates were closed with a gel blotting card and a second plastic stencil and then turned upside down. The samples were assessed for mortality 5 days after infestation.

[2] = tested on: Myzus persicae (Green Peach Aphid); experiment: Example B8: Myzus persicae (green peach aphid), intrinsic activity; conditions: 120 h, test rate 12 ppm, sucrose solution, 24-well, 5 days after infestation
From the text: Example B8: Myzus persicae (Green Peach Aphid), Intrinsic Activity
Test compounds prepared from 10,000 ppm DMSO stock solutions were applied by pipette into 24-well microtiter plates and mixed with sucrose solution. The plates were closed with a stretched Parafilm. A plastic stencil with 24 holes was placed onto the plate and infested pea seedlings were placed directly on the Parafilm. The infested plate was closed with a gel blotting paper and another plastic stencil and then turned upside down. The samples were assessed for mortality 5 days after infestation.

[3] = tested on: Plutella xylostella (Diamondback Moth); experiment: Example B14: activity against Plutella xylostella (diamondback moth), 96-well artificial diet; conditions: 216 h, application rate 500 ppm, 9 days after infestation
Procedure: Example B14: Activity Against Plutella xylostella (Diamondback Moth)
96-well microtiter plates containing artificial diet were treated with aqueous test solutions, prepared from 10,000 ppm DMSO stock solutions, by a liquid handling robot. After drying, eggs (30 per well) were infested onto a netted lid which was suspended above the diet. The eggs hatch and L1 larvae move down to the diet. The samples were assessed for mortality 9 days after infestation.
The following compounds gave an effect of at least 80% average mortality at an application rate of 500 ppm: […]

[4] = tested on: Plutella xylostella (Diamond Back Moth); experiment: Example B5: Plutella xylostella (diamond back moth), artificial diet, 24-well, eggs; conditions: 192 h, application rate 200 ppm, 8 days after infestation, read-out: effect in at least one of the two categories (mortality or growth inhibition)
Procedure: Example B5: Plutella xylostella (Diamond Back Moth)
24-well microtiter plates with artificial diet were treated with aqueous test solutions prepared from 10,000 ppm DMSO stock solutions by pipetting. After drying, Plutella eggs were pipetted through a plastic stencil onto a gel blotting paper and the plate was closed with it. The samples were assessed for mortality and growth inhibition in comparison to untreated samples 8 days after infestation. The following compounds gave an effect of at least 80% in at least one of the two categories (mortality or growth inhibition) at an application rate of 200 ppm: […]

[5] = tested on: Diabrotica Balteata (Corn Root Worm); experiment: Example B1: Diabrotica balteata (corn root worm), maize sprouts sprayed, L2 larvae; conditions: 96 h, application rate 200 ppm, 4 days after infestation, read-out: effect in at least one of the two categories (mortality or growth inhibition)
Procedure: Example B1: Diabrotica Balteata (Corn Root Worm)
Maize sprouts placed onto an agar layer in 24-well microtiter plates were treated with aqueous test solutions prepared from 10,000 ppm DMSO stock solutions by spraying. After drying, the plates were infested with L2 larvae (6 to 10 per well). The samples were assessed for mortality and growth inhibition in comparison to untreated samples 4 days after infestation.
(§1) The following compounds gave an effect of at least 80% in at least one of the two categories (mortality or growth inhibition) at an application rate of 200 ppm: […]

[6] = tested on: Spodoptera littoralis (Egyptian Cotton Leaf Worm); experiment: Example B9: Spodoptera littoralis (Egyptian cotton leaf worm), cotton leaf discs sprayed, L1 larvae; conditions: foliar, 72 h, application rate 200 ppm, 3 days after infestation
Procedure: Example B9: Spodoptera littoralis (Egyptian Cotton Leaf Worm)
Cotton leaf discs were placed onto agar in 24-well microtiter plates and sprayed with aqueous test solutions prepared from 10,000 ppm DMSO stock solutions. After drying the leaf discs were infested with five L1 larvae. The samples were assessed for mortality, anti-feeding effect, and growth inhibition in comparison to untreated samples 3 days after infestation. Control of Spodoptera littoralis by a test sample is given when at least one of the three categories (i.e. mortality, anti-feedant effect, and growth inhibition) is higher than the untreated sample.

[7] = tested on: Euschistus heros (Neotropical Brown Stink Bug); experiment: Example B2: Euschistus heros (neotropical brown stink bug), soybean leaves sprayed, N2 nymphs; conditions: 120 h, application rate 200 ppm, 5 days after infestation, read-out: effect in at least one of the two categories (mortality or growth inhibition)
Procedure: Example B2: Euschistus heros (Neotropical Brown Stink Bug)
Soybean leaves on agar in 24-well microtiter plates were sprayed with aqueous test solutions prepared from 10,000 ppm DMSO stock solutions. After drying the leaves were infested with N2 nymphs. The samples were assessed for mortality and growth inhibition in comparison to untreated samples 5 days after infestation.
as §1

[8] = tested on: Chilo suppressalis (Striped Rice Stemborer); experiment: Example B4: Chilo suppressalis (striped rice stemborer), artificial diet, L2 larvae; conditions: 144 h, application rate 200 ppm, 6 days after infestation
Procedure: Example B4: Chilo suppressalis (Striped Rice Stemborer)
24-well microtiter plates with artificial diet were treated with aqueous test solutions prepared from 10,000 ppm DMSO stock solutions by pipetting. After drying, the plates were infested with L2 larvae (6-8 per well). The samples were assessed for mortality, anti-feeding effect, and growth inhibition in comparison to untreated samples 6 days after infestation. Control of Chilo suppressalis by a test sample is given when at least one of the categories (i.e. mortality, anti-feedant effect, and growth inhibition) is higher than the untreated sample.

CC(c1ncnn1-c1ncccn1)N(CC1CC1)C(=O)c1cccc(C2(C#N)CC2)c1 (centres unmarked) [P21, 3-(1-cyanocyclopropyl)-N-(cyclopropylmethyl)-N-[1-(2-pyrimidin-2-yl-1,2,4-triazol-3-yl)ethyl]benzamide]
≥ 80%: mortality at 50 ppm [1] | mortality at 12 ppm [2] | mortality at 500 ppm [3]

CC(c1ncnn1-c1ncccn1)N(CC1CC1)C(=O)c1cccc(C2CC2C(F)(F)F)c1 (centres unmarked) [P23, N-(cyclopropylmethyl)-N-[1-(2-pyrimidin-2-yl-1,2,4-triazol-3-yl)ethyl]-3-[2-(trifluoromethyl)cyclopropyl]benzamide]
≥ 80%: mortality at 50 ppm [1] | mortality at 12 ppm [2] | mortality at 500 ppm [3] | percent effect (mortality or growth inhibition) at 200 ppm [4]

CC(c1ncnn1-c1ncccn1)N(CC1CC1)C(=O)c1cc(C(F)(F)F)cc(C(C)(C)C#N)n1 (centres unmarked) [P31, 6-(1-cyano-1-methyl-ethyl)-N-(cyclopropylmethyl)-N-[1-(2-pyrimidin-2-yl-1,2,4-triazol-3-yl)ethyl]-4-(trifluoromethyl)pyridine-2-carboxamide]
≥ 80%: mortality at 50 ppm [1] | mortality at 500 ppm [3] | percent effect (mortality or growth inhibition) at 200 ppm [4] | percent effect (mortality or growth inhibition) at 200 ppm [5]

CC(c1ncnn1-c1ncccn1)N(CC1CC1)C(=O)c1cc(C(F)(F)F)cc(C2(C#N)CC2)n1 (centres unmarked) [P33, 6-(1-cyanocyclopropyl)-N-(cyclopropylmethyl)-N-[1-(2-pyrimidin-2-yl-1,2,4-triazol-3-yl)ethyl]-4-(trifluoromethyl)pyridine-2-carboxamide]
≥ 80%: mortality at 50 ppm [1] | mortality at 500 ppm [3] | percent effect (mortality or growth inhibition) at 200 ppm [4] | percent effect (mortality or growth inhibition) at 200 ppm [5]

CC(c1ncnn1-c1ncccn1)N(CC1CC1)C(=O)c1cccc(C(F)(F)C2CC2)c1 (centres unmarked) [P40, 3-[cyclopropyl(difluoro)methyl]-N-(cyclopropylmethyl)-N-[1-(2-pyrimidin-2-yl-1,2,4-triazol-3-yl)ethyl]benzamide]
≥ 80%: percent control (mortality, anti-feedant effect or growth inhibition) at 200 ppm [6] | mortality at 50 ppm [1] | mortality at 500 ppm [3] | percent effect (mortality or growth inhibition) at 200 ppm [4] | percent effect (mortality or growth inhibition) at 200 ppm [5]

CC(c1ncnn1-c1ncccn1)N(CC1CC1)C(=O)c1cc(C(F)(F)F)cc(C2(C(F)(F)F)CC2(F)F)c1 (centres unmarked) [P41, N-(cyclopropylmethyl)-3-[2,2-difluoro-1-(trifluoromethyl)cyclopropyl]-N-[1-(2-pyrimidin-2-yl-1,2,4-triazol-3-yl)ethyl]-5-(trifluoromethyl)benzamide]
≥ 80%: percent effect (mortality or growth inhibition) at 200 ppm [7] | percent control (mortality, anti-feedant effect or growth inhibition) at 200 ppm [6] | mortality at 500 ppm [3] | percent effect (mortality or growth inhibition) at 200 ppm [4] | percent effect (mortality or growth inhibition) at 200 ppm [5]

CC(c1ncnn1-c1ncccn1)N(CC1CC1)C(=O)c1cc(C(F)(F)F)cc(C2(C)CC2(F)F)c1 (centres unmarked) [P44, N-(cyclopropylmethyl)-3-(2,2-difluoro-1-methyl-cyclopropyl)-N-[1-(2-pyrimidin-2-yl-1,2,4-triazol-3-yl)ethyl]-5-(trifluoromethyl)benzamide]
≥ 80%: percent effect (mortality or growth inhibition) at 200 ppm [7] | percent control (mortality, anti-feedant effect or growth inhibition) at 200 ppm [6] | mortality at 50 ppm [1] | mortality at 500 ppm [3] | percent effect (mortality or growth inhibition) at 200 ppm [4] | percent effect (mortality or growth inhibition) at 200 ppm [5]

CC(c1ncnn1-c1ncccn1)N(CC1CC1)C(=O)c1cc(OC2CC2)cc(C(F)(F)F)c1 (centres unmarked) [P51, 3-(cyclopropoxy)-N-(cyclopropylmethyl)-N-[1-(2-pyrimidin-2-yl-1,2,4-triazol-3-yl)ethyl]-5-(trifluoromethyl)benzamide]
≥ 80%: percent control (mortality, anti-feedant effect or growth inhibition) at 200 ppm [6] | mortality at 50 ppm [1] | mortality at 500 ppm [3] | percent effect (mortality or growth inhibition) at 200 ppm [4] | percent effect (mortality or growth inhibition) at 200 ppm [5]

CC(c1ncnn1-c1ncccn1)N(CC1CC1)C(=O)c1cc(C(F)(F)F)nc(S(C)(=O)=O)c1 (centres unmarked) [P53, N-(cyclopropylmethyl)-2-methylsulfonyl-N-[1-(2-pyrimidin-2-yl-1,2,4-triazol-3-yl)ethyl]-6-(trifluoromethyl)pyridine-4-carboxamide]
≥ 80%: percent effect (mortality or growth inhibition) at 200 ppm [7]

CC(c1ncnn1-c1ncccn1)N(CC1CC1)C(=O)c1cc(OC2CC2)cc(OC2CC2)c1 (centres unmarked) [P60, 3,5-bis(cyclopropoxy)-N-(cyclopropylmethyl)-N-[1-(2-pyrimidin-2-yl-1,2,4-triazol-3-yl)ethyl]benzamide]
≥ 80%: mortality at 50 ppm [1] | mortality at 500 ppm [3] | percent effect (mortality or growth inhibition) at 200 ppm [4] | percent effect (mortality or growth inhibition) at 200 ppm [5]

CC(NC(=O)c1cc(C(F)(F)F)cc(C(F)(F)C2CCC2)c1)c1ncnn1-c1ncccn1 (centres unmarked) [P66, 3-[cyclobutyl(difluoro)methyl]-N-[1-(2-pyrimidin-2-yl-1,2,4-triazol-3-yl)ethyl]-5-(trifluoromethyl)benzamide]
≥ 80%: percent control (mortality, anti-feedant effect or growth inhibition) at 200 ppm [8]

CC(NC(=O)c1cc(-c2ccc(C(F)(F)F)cc2)cc(C(F)(F)F)c1)c1ncnn1-c1ncccn1 (centres unmarked) [P67, N-[1-(2-pyrimidin-2-yl-1,2,4-triazol-3-yl)ethyl]-3-(trifluoromethyl)-5-[4-(trifluoromethyl)phenyl]benzamide]
≥ 80%: percent control (mortality, anti-feedant effect or growth inhibition) at 200 ppm [8] | mortality at 50 ppm [1] | percent effect (mortality or growth inhibition) at 200 ppm [4] | percent effect (mortality or growth inhibition) at 200 ppm [5]

CC(NC(=O)c1cc(-c2cccc(C(F)(F)F)c2)cc(C(F)(F)F)c1)c1ncnn1-c1ncccn1 (centres unmarked) [P68, N-[1-(2-pyrimidin-2-yl-1,2,4-triazol-3-yl)ethyl]-3-(trifluoromethyl)-5-[3-(trifluoromethyl)phenyl]benzamide]
≥ 80%: percent control (mortality, anti-feedant effect or growth inhibition) at 200 ppm [8] | percent control (mortality, anti-feedant effect or growth inhibition) at 200 ppm [6] | mortality at 50 ppm [1] | percent effect (mortality or growth inhibition) at 200 ppm [4] | percent effect (mortality or growth inhibition) at 200 ppm [5]

CC(NC(=O)c1cc(C2CC2)cc(C(F)(F)F)c1)c1ncnn1-c1ccc(Br)cn1 (centres unmarked) [P74, N-[1-[2-(5-bromo-2-pyridyl)-1,2,4-triazol-3-yl]ethyl]-3-cyclopropyl-5-(trifluoromethyl)benzamide]
≥ 80%: percent control (mortality, anti-feedant effect or growth inhibition) at 200 ppm [8] | percent control (mortality, anti-feedant effect or growth inhibition) at 200 ppm [6] | percent effect (mortality or growth inhibition) at 200 ppm [4] | percent effect (mortality or growth inhibition) at 200 ppm [5]

CC(NC(=O)c1cc(C(F)(F)F)cc(C2(C#N)CC2)c1)c1ncnn1-c1ccccn1 (centres unmarked) [P76, 3-(1-cyanocyclopropyl)-N-[1-[2-(2-pyridyl)-1,2,4-triazol-3-yl]ethyl]-5-(trifluoromethyl)benzamide]
≥ 80%: percent control (mortality, anti-feedant effect or growth inhibition) at 200 ppm [8] | percent control (mortality, anti-feedant effect or growth inhibition) at 200 ppm [6] | percent effect (mortality or growth inhibition) at 200 ppm [4] | percent effect (mortality or growth inhibition) at 200 ppm [5]
